Assay [1] deals with Brassica napus. The assay is described as follows: Drought stress in vivo analysis Part B, appearance vs stressed control plants in categories. Details: key: 0: no positive effect; +: slight positive effect; ++: clear positive effect; +++: strong positive effect. The protocol:
(§1) Seeds of monocotyledonous and dicotyledonous crop plants were sown in sandy loam in plastic pots, covered with soil or sand and cultivated in a greenhouse under good growth conditions. The test plants are treated at the early leaf stage (BBCH10-BBCH13). To assure uniform water supply before commencement of stress, the potted plants were supplied with water by dam irrigation prior to substance application. The inventive compounds were first formulated as wettable powders (WP) or dissolved in a solvent mixture. The further dilution was effected with water supplemented with 0.2% wetting agent (e.g. agrotin). The finished spray liquor was sprayed onto the green parts of the plant at an equivalent water application rate of 600 I/ha. Substance application was followed immediately by stress treatment of the plants. Drought Stress was Induced by Gradual Drying Out Under the Following Conditions: “Day”: 14 hours with illumination at […]-30° C. “Night”: 10 hours without illumination at 18-20° C. The duration of the respective stress phases was guided mainly by the condition of the stressed control plants. It was ended (by re-irrigating and transfer to a greenhouse with good growth conditions) as soon as irreversible damage was observed on the stressed control plants. The end of the stress phase was followed by an about 4-7-day recovery phase, during which the plants were once again kept under good growth conditions in a greenhouse. The duration of the recovery phase was guided mainly by when the trial plants had attained a state which enabled visual scoring of potential effects, and was therefore variable. Once this juncture had been reached, the appearance of the plants treated with test substances was recorded in comparison to the stressed control plants by the following categories: [table] In order to rule out any influence on the effects observed by any fungicidal or insecticidal action of the test compounds, it was additionally ensured that the tests proceeded without fungal infection or insect infestation. The values reported in tables B-1 and […] below are mean values of the results from at least three repeats. Effects of selected compounds of the general formula (I) under drought stress according to the following tables B-1 and B-2: BRSNS=Brassica napus ZEAMX=Zea mays TRZAS=Triticum aestivum

The subject of assay [2] is Triticum aestivum. Described as above. Details: key: 0: no positive effect; +: slight positive effect; ++: clear positive effect; +++: strong positive effect. The method, then:
as §1

Assay [3] relates to Zea mays. In words: Drought stress in vivo analysis, efficacy EF from visually scored damage intensity. The following applies: scored after recovery phase. The method, then: (§2) Seeds of monocotyledonous and dicotyledonous crop plants were sown in sandy loam in wood-fiber or plastic pots, covered with soil or sand and cultivated in a greenhouse under good growth conditions. The trial plants were treated at the early leaf stage (BBCH10-BBCH13). To assure uniform water supply before commencement of stress, the potted plants were supplied with water by dam irrigation prior to substance application. The inventive compounds formulated in the form of wettable powders (WP) were sprayed onto the green parts of the plants as an aqueous suspension at an equivalent water application rate of 600 I/ha with addition of 0.2% wetting agent (e.g. agrotin). Substance application was followed immediately by stress treatment of the plants. For this purpose, the wood-fiber pots were transferred in plastic inserts in order to prevent them from subsequently drying out too quickly. Drought Stress was Induced by Gradual Drying Out Under the Following Conditions: “Day”: 14 hours with illumination at ˜26-30° C. “Night”: 10 hours without illumination at ˜18-20° C. The duration of the respective stress phases was guided mainly by the condition of the stressed control plants. It was ended (by re-irrigating and transfer to a greenhouse with good growth conditions) as soon as irreversible damage was observed on the stressed control plants. The end of the stress phase was followed by an about 4-7-day recovery phase, during which the plants were once again kept under good growth conditions in a greenhouse. The duration of the recovery phase was guided mainly by when the trial plants had attained a state which enabled visual scoring of potential effects, and is therefore variable. Once this juncture was reached, the intensities of damage were scored visually in comparison to untreated, unstressed controls of the same age. The damage intensity was at first assessed in percent. These values were then used to calculate the efficacy of the test compounds by the following formula: [formula] EF: Efficacy DIs: Damage intensity of the stressed control plants DIh: Damage intensity of the stressed plants treated with test compound The values reported in tables A-1 to A-3 below are mean values from at least one trial with at least two repeats. The effects of selected compounds of the general formula (I) under drought stress on various crop plants were measured. BRSNS=Brassica napus ZEAMX=Zea mays TRZAS=Triticum aestivum

Assay [4] has as its system Brassica napus. Described as above. Conditions: spray 250 g/ha, scored after recovery phase. The protocol:
as §2

For assay [5], the system named is Triticum aestivum. Described as above. Conditions: scored after recovery phase. The method, then:
as §2

Bounds are passed on as bounds.

With `CN(C)N(Cc1ccc(F)cc1F)C(=O)c1c(C(F)(F)F)nn(C)c1Cl` [Compound A1-15], the “Effect (BRSNS)” value in assay [1] (spray 25 g/ha) is on record as “++”. Also, the “Effect (TRZAS)” value in assay [2] (spray 25 g/ha) is “+”.
Taken in the same sequence, the figures for `CN(C)N(Cc1ccccc1C#N)C(=O)c1c(C(F)(F)F)nn(C)c1F` [Compound A2-61] were “++” and “+”.
Regarding `COc1cc(OC)nc(CN(C(=O)c2c(C(F)F)nn(C)c2F)N(C)C)n1` [Compound A5-30], the “EF [%] (ZEAMX)” value in assay [3] (spray 25 g/ha) is over 5%.
Take `CN(C)N(Cc1ccccn1)C(=O)c1c(C(F)F)nn(C)c1Cl` [Compound A6-21, 5-Chloro-3-(difluoromethyl) —N′,N′,1-trimethyl-N-(pyridin-2-ylmethyl)-1H-pyrazole-4-carbohydrazide]: the “EF [%] (BRSNS)” value in assay [4] is reported as over 5%. In assay [3] (spray 250 g/ha), the “EF [%] (ZEAMX)” value is listed as over 5%.
In the case of `CNN(Cc1ccccc1Cl)C(=O)c1c(C(F)F)nn(C)c1F` [Compound A22-1], in assay [1] (spray 250 g/ha), the “Effect (BRSNS)” value was “+”. Besides, the “Effect (TRZAS)” value in assay [2] (spray 250 g/ha) was “+”.
Consider `CCn1nc(C(F)F)c(C(=O)N(Cc2nccc(Cl)c2Cl)N2CCCC2)c1F` [Compound A24-40], for which the “Effect (BRSNS)” value in assay [1] (spray 250 g/ha) is “+”. For the same compound, in assay [2] (spray 250 g/ha), the “Effect (TRZAS)” value is given as “+”.
Regarding `CN(C)N(Cc1ccccc1Cl)C(=O)c1ccsc1` [Compound B2-1], in assay [5] (spray 250 g/ha), the “EF [%] (TRZAS)” value was over 5%. Besides, the “EF [%] (ZEAMX)” value in assay [3] (spray 25 g/ha) was over 5%.
As to `CN(C)N(Cc1ccccn1)C(=O)c1ccsc1` [Compound B2-21], the “EF [%] (TRZAS)” value in assay [5] (spray 25 g/ha) was over 5%. The “EF [%] (ZEAMX)” value in assay [3] (spray 250 g/ha) is given as over 5%.
As to `CN(C)N(Cc1ccccc1C#N)C(=O)c1ccsc1` [Compound B2-61], in assay [4], the “EF [%] (BRSNS)” value is on record as over 5%. In addition, in assay [5] (spray 20 g/ha), the “EF [%] (TRZAS)” value is recorded as over 5%. Moreover, in assay [3] (spray 250 g/ha), the “EF [%] (ZEAMX)” value was over 5%.
As to `CN(C)N(Cc1ccccc1C#N)C(=O)c1ccco1` [Compound C1-61], in assay [3] (spray 250 g/ha), the “EF [%] (ZEAMX)” value is over 5%.
With `Cc1nc(-c2cccnc2)sc1C(=O)N(Cc1ccccc1Cl)N(C)C` [Compound D1-1], the “Effect (BRSNS)” value in assay [1] (spray 25 g/ha) is listed as “+”. For the same compound, the “Effect (TRZAS)” value in assay [2] (spray 250 g/ha) was “+”.
Consider `CN(C)N(Cc1cccc(Cl)c1Cl)C(=O)c1sc(Cl)nc1Cl` [Compound D6-4], for which the “Effect (BRSNS)” value in assay [1] (spray 25 g/ha) is on record as “+”. Besides, in assay [2] (spray 25 g/ha), the “Effect (TRZAS)” value is recorded as “+”.
As for `CN(C)N(Cc1ccccc1F)C(=O)c1sc(Cl)nc1Cl` [Compound D6-11], the “Effect (BRSNS)” value in assay [1] (spray 250 g/ha) is reported as “+”. Moreover, the “Effect (TRZAS)” value in assay [2] (spray 25 g/ha) is reported as “+”.
As for `CN(C)N(Cc1ccccc1C#N)C(=O)c1sc(Cl)nc1Cl` [Compound D6-61], the “Effect (BRSNS)” value in assay [1] (spray 250 g/ha) is given as “+”. The “Effect (TRZAS)” value in assay [2] (spray 25 g/ha) was “+”.
With `Cc1nnsc1C(=O)N(Cc1cccc(Cl)c1Cl)N(C)C` [Compound F1-4], the “Effect (BRSNS)” value in assay [1] (spray 250 g/ha) was “+”. Besides, the “Effect (TRZAS)” value in assay [2] (spray 250 g/ha) is recorded as “+”.
For `CC(C)c1nnsc1C(=O)N(Cc1ccccc1C#N)N(C)C` [Compound F2-61, 4-Isopropyl-N′,N′-dimethyl-N-(2-cyanobenzyl)-1,2,3-thiadiazole-5-carbohydrazide], the “Effect (BRSNS)” value in assay [1] (spray 250 g/ha) is “+”. Moreover, in assay [2] (spray 250 g/ha), the “Effect (TRZAS)” value was “+”.
As to `CN(C)N(Cc1cccc(Cl)c1)C(=O)c1snc(N)c1Cl` [Compound G1-2], the “Effect (BRSNS)” value in assay [1] (spray 25 g/ha) was “+”.
As for `CN(C)N(Cc1ccccc1Cl)C(=O)c1ccns1` [Compound G8-1], in assay [1] (spray 250 g/ha), the “Effect (BRSNS)” value is on record as “+”. Further, the “Effect (TRZAS)” value in assay [2] (spray 250 g/ha) is “+”.
Consider `CN(C)N(Cc1ccccc1F)C(=O)c1ccns1` [Compound G8-11], for which the “Effect (BRSNS)” value in assay [1] (spray 25 g/ha) was “+”.
`CN(C)N(Cc1ccc(Cl)nc1)C(=O)c1ccns1` [Compound G8-94]: the “Effect (BRSNS)” value in assay [1] (spray 25 g/ha) is given as “+”. Also, the “Effect (TRZAS)” value in assay [2] (spray 25 g/ha) is recorded as “++”.
For `O=C(c1ccns1)N(Cc1cccc(Cl)c1Cl)N1CCCC1` [Compound G9-4], the “Effect (BRSNS)” value in assay [1] (spray 250 g/ha) is “++”. Moreover, the “Effect (TRZAS)” value in assay [2] (spray 25 g/ha) was “++”.
Consider `O=C(c1ccns1)N(Cc1ccccc1F)N1CCCC1` [Compound G9-11], for which the “Effect (BRSNS)” value in assay [1] (spray 250 g/ha) was “+”. For the same compound, the “Effect (TRZAS)” value in assay [2] (spray 250 g/ha) is on record as “+”.
As to `O=C(c1ccns1)N(Cc1ncc(C(F)(F)F)cc1Cl)N1CCCC1` [Compound G9-36], the “Effect (BRSNS)” value in assay [1] (spray 250 g/ha) was “++”. Also, the “Effect (TRZAS)” value in assay [2] (spray 25 g/ha) was “+”.
`CN(C)N(Cc1cccc(Cl)c1Cl)C(=O)c1cc(OCc2ccccc2)ns1` [Compound G10-4]: the “Effect (BRSNS)” value in assay [1] (spray 250 g/ha) is given as “+”.
As to `CN(C)N(Cc1ccc(Cl)nc1)C(=O)c1cc(OCc2ccccc2)ns1` [Compound G10-94], the “Effect (BRSNS)” value in assay [1] (spray 250 g/ha) is given as “++”. In addition, the “Effect (TRZAS)” value in assay [2] (spray 25 g/ha) is reported as “+”.
As for `Cc1c(OCc2ccccc2)nsc1C(=O)N(Cc1cccc(Cl)c1Cl)N(C)C` [Compound G11-4], the “Effect (BRSNS)” value in assay [1] (spray 250 g/ha) was “++”. In assay [2] (spray 250 g/ha), the “Effect (TRZAS)” value is “+”.
Taken in the same sequence, the figures for `Cc1c(OCc2ccccc2)nsc1C(=O)N(Cc1ccc(Cl)nc1)N(C)C` [Compound G11-94] were “+” and “+”.
As to `CN(C)N(Cc1ccc(Cl)cc1)C(=O)c1cnsn1` [Compound H1-3], the “Effect (BRSNS)” value in assay [1] (spray 25 g/ha) is given as “+”. Besides, the “Effect (TRZAS)” value in assay [2] (spray 25 g/ha) is given as “+”.
In the case of `CN(C)N(Cc1ccccc1F)C(=O)c1cnsn1` [Compound H1-11], the “Effect (BRSNS)” value in assay [1] (spray 250 g/ha) is “+”. Besides, the “Effect (TRZAS)” value in assay [2] (spray 250 g/ha) is “+”.
For `CN(C)N(Cc1ccccn1)C(=O)c1cnsn1` [Compound H1-21], the “Effect (BRSNS)” value in assay [1] (spray 25 g/ha) was “+”.
Turning to `O=C(c1cnsn1)N(Cc1cccc(Cl)c1Cl)N1CCCC1` [Compound H2-4], the “Effect (BRSNS)” value in assay [1] (spray 250 g/ha) is recorded as “+”. Also, in assay [2] (spray 250 g/ha), the “Effect (TRZAS)” value was “+”.
For the compound `O=C(c1cnsn1)N(Cc1ccccc1F)N1CCCC1` [Compound H2-11], the “Effect (BRSNS)” value in assay [1] (spray 25 g/ha) is reported as “+”. In addition, in assay [2] (spray 250 g/ha), the “Effect (TRZAS)” value is reported as “+”.
On to `O=C(c1cnsn1)N(Cc1ncc(C(F)(F)F)cc1Cl)N1CCCC1` [Compound H2-36], for which, in assay [1] (spray 250 g/ha), the “Effect (BRSNS)” value was “++”.
For `O=C(c1cnsn1)N(Cc1ccc(Cl)nc1)N1CCCC1` [Compound H2-94], the “Effect (BRSNS)” value in assay [1] (spray 250 g/ha) is listed as “+”. Moreover, in assay [2] (spray 250 g/ha), the “Effect (TRZAS)” value is reported as “+”.

For the origin of these results see patent publication US20180206498A1, “SUBSTITUTED HETEROARYL CARBOXYLIC ACID HYDRAZIDES OR SALTS THEREOF AND USE THEREOF TO INCREASE STRESS TOLERANCE IN PLANTS” (Bayer CropScience Aktiengesellschaft, priority 2015, published 2018).
